The supplement of paper PMC11061612

Assays:
Assay in all cases: Bliss excess, mean over the matrix (fraction); higher = more synergy
AU565 (Breast Carcinoma) = tested on: AU565 (Breast Carcinoma)
Procedure, shortened: (§1)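 Cell lines in DMEM/F12 or RPMI with 10% FBS were plated in 1536-well plates, held 24 hours at 37°C, 5% CO2, then given two-drug dose matrices for 72 hours (DMSO typically 0.2%). Viability was read by CellTiter-Glo 2.0 luminescence and scaled as inhibition from 0 (vehicle wells) to 1 (blank wells). Combination Emax is the second-highest inhibition in the matrix; Bliss excess is observed combination effect minus expected EA + EB − EA·EB, EA and EB being single-agent effects.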

[1] = tested on: CA46 (Burkitt's Lymphoma)
Procedure, shortened: as §1

[2] = tested on: CAL-27 (Oral Cavity Carcinoma)
Procedure, shortened: as §1

[3] = tested on: CESS (Acute Myeloid Leukemia)
Procedure, shortened: as §1

COLO-792 (Melanoma) = tested on: COLO-792 (Melanoma)
Procedure, shortened: as §1

[4] = tested on: DU-4475 (Breast Carcinoma)
Procedure, shortened: as §1

[5] = tested on: EPLC-272H (Other Solid Carcinomas)
Procedure, shortened: as §1

[6] = tested on: ESO26 (Esophageal Adenocarcinoma)
Procedure, shortened: as §1

[7] = tested on: G-402 (Other Solid Carcinomas)
Procedure, shortened: as §1

[8] = tested on: GCT (Other Solid Carcinomas)
Procedure, shortened: as §1

[9] = tested on: HT55 (Colorectal Carcinoma)
Procedure, shortened: as §1

[10] = tested on: JIMT-1 (Breast Carcinoma)
Procedure, shortened: as §1

[11] = tested on: JVM-2 (B-Cell Non-Hodgkin's Lymphoma)
Procedure, shortened: as §1

[12] = tested on: Jurkat (T-Lymphoblastic Leukemia)
Procedure, shortened: as §1

[13] = tested on: KYSE-140 (Esophageal Squamous Cell Carcinoma)
Procedure, shortened: as §1

[14] = tested on: LS-411N (Colorectal Carcinoma)
Procedure, shortened: as §1

[15] = tested on: NCI-H716 (Colorectal Carcinoma)
Procedure, shortened: as §1

[16] = tested on: OACp4C (Esophageal Adenocarcinoma)
Procedure, shortened: as §1

RH-41 (Rhabdomyosarcoma) = tested on: RH-41 (Rhabdomyosarcoma)
Procedure, shortened: as §1

NB13 (Neuroblastoma) = tested on: NB13 (Neuroblastoma)
Procedure, shortened: as §1

Row | Compound | Bliss excess (AU565 (Breast Carcinoma)) | Bliss excess [1] | Bliss excess [2] | Bliss excess [3] | Bliss excess (COLO-792 (Melanoma)) | Bliss excess [4] | Bliss excess [5] | Bliss excess [6] | Bliss excess [7] | Bliss excess [8] | Bliss excess [9] | Bliss excess [10] | Bliss excess [11] | Bliss excess [12] | Bliss excess [13] | Bliss excess [14] | Bliss excess [15] | Bliss excess [16] | Bliss excess (RH-41 (Rhabdomyosarcoma)) | Bliss excess (NB13 (Neuroblastoma))
1 | C[C@@H](c1ccc2nccn2c1)n1nnc2ncc(-c3cnn(C)c3)nc21 [Savolitinib] + CN(CC[C@H](CSC1=CC=CC=C1)NC2=C(C=C(C=C2)S(=O)(=O)NC(=O)C3=CC=C(C=C3)N4CCC(CC4)[C@H](C5=CC=CC=C5C6=CC=C(C=C6)Cl)O)S(=O)(=O)C(F)(F)F)CCO [AZD4320] (first compound max 1 µM, 7x7, partner max 1 µM) | 0.0022 | -0.0488 | -0.0514 | -0.001 | 0.0139 | -0.0352 | -0.0701 | -0.0467 | -0.0639 | -0.0527 | -0.0439 | -0.0427 | -0.0313 | -0.0638 | 0.0044 | -0.0069 | -0.0422 | -0.0291 | -0.0093 | –
2 | Cc1cc2ncnn2cc1Nc1ncc2c(n1)n(C1CCOCC1)c(=O)n2C [AZD7648] + O=C(c1cc(Cc2n[nH]c(=O)c3ccccc23)ccc1F)N1CCN(C(=O)C2CC2)CC1 [Olaparib] (first compound max 10 µM, 7x7, partner max 10 µM) | -0.0658 | -0.0518 | -0.0448 | -0.0101 | -0.0435 | 0.0289 | 0.0608 | -0.003 | -0.0814 | -0.0488 | -0.0497 | -0.0191 | -0.0275 | 0.108 | -0.0146 | -0.0195 | -0.0056 | -0.0203 | -0.0293 | -0.0247
3 | N#Cc1cnc(Nc2cc(NC[C@H]3CNCCO3)c(C(F)(F)F)cn2)cn1 [SRA737] + C=CCn1c(=O)c2cnc(Nc3ccc(N4CCN(C)CC4)cc3)nc2n1-c1cccc(C(C)(C)O)n1 [AZD1775] (first compound max 10 µM, partner max 1 µM) | – | – | – | – | – | – | – | – | – | – | – | – | – | – | – | – | – | – | – | 0.0322
4 | CN(CCO)CC[C@H](CSc1ccccc1)Nc1ccc(S(=O)(=O)NC(=O)c2ccc(N3CCC([C@@H](O)c4ccccc4-c4ccc(Cl)cc4)CC3)cc2)cc1S(=O)(=O)C(F)(F)F [AZD4320] + C1CN(CCC1(C(=O)N[C@@H](CCO)C2=CC=C(C=C2)Cl)N)C3=NC=NC4=C3C=CN4 [Capivasertib] (first compound max 1 µM, 7x7, partner max 3 µM) | 0.0161 | -0.0496 | -0.0362 | 0.0517 | 0.0021 | 0.069 | -0.0089 | -0.0271 | -0.0262 | -0.021 | -0.0469 | -0.0424 | -0.0068 | -0.0203 | -0.0432 | -0.048 | -0.0262 | 0.0209 | -0.0159 | 0.0174
5 | CN(CCO)CC[C@H](CSc1ccccc1)Nc1ccc(S(=O)(=O)NC(=O)c2ccc(N3CCC([C@@H](O)c4ccccc4-c4ccc(Cl)cc4)CC3)cc2)cc1S(=O)(=O)C(F)(F)F [AZD4320] + Cn1cnc2c(F)c(Nc3ccc(Br)cc3Cl)c(C(=O)NOCCO)cc21 [Selumetinib] (first compound max 1 µM, 7x7, partner max 3 µM) | 0.0474 | -0.0435 | 0.0321 | -0.0701 | 0.0279 | 0.0444 | 0.0108 | 0.0111 | 0.0153 | 0.0789 | 0.0074 | 0.0367 | 0.025 | 0.0229 | 0.0178 | 0.0165 | – | 0.0737 | 0.0087 | 0.0039
6 | COc1nnc2ccc(N3CCC(c4ccc(OCCN5CCN(C)C(=O)[C@H]5C)cc4)CC3)nn12 [AZD5153] + CN(CC[C@H](CSC1=CC=CC=C1)NC2=C(C=C(C=C2)S(=O)(=O)NC(=O)C3=CC=C(C=C3)N4CCC(CC4)[C@H](C5=CC=CC=C5C6=CC=C(C=C6)Cl)O)S(=O)(=O)C(F)(F)F)CCO [AZD4320] (first compound max 1 µM, 7x7, partner max 1 µM) | 0.0811 | -0.0053 | 0.0151 | 0.0356 | 0.0427 | 0.0779 | -0.04 | 0.0233 | 0.0157 | 0.0204 | -0.0021 | 0.0486 | 0.0973 | 0.041 | 0.0588 | 0.0969 | -0.0394 | -0.0404 | 0.0427 | –
7 | COc1cc2ncnc(Nc3ccc(F)c(Cl)c3)c2cc1OCCCN1CCOCC1 [Gefitinib] + CC(C)n1c(=O)n(C)c2cnc3cc(F)c(-c4ccc(OCCCN5CCCCC5)nc4)cc3c21 [AZD1390] (first compound max 10 µM, 7x7, partner max 0.3 µM) | -0.0219 | -0.0529 | -0.0668 | -0.0386 | -0.0612 | -0.0427 | -0.0207 | -0.0832 | -0.0659 | -0.065 | -0.0393 | -0.0248 | -0.0645 | -0.0756 | -0.0919 | -0.0463 | -0.0353 | -0.067 | -0.0378 | -0.0433
8 | Cc1cc2ncnn2cc1Nc1ncc2c(n1)n(C1CCOCC1)c(=O)n2C [AZD7648] + C[C@@H]1COCCN1C2=NC(=NC(=C2)C3(CC3)[S@](=N)(=O)C)C4=C5C=CNC5=NC=C4 [AZD6738] (first compound max 10 µM, 7x7, partner max 10 µM) | 0.0393 | 0.0493 | -0.0327 | 0.0058 | 0.0187 | 0.0019 | -0.0093 | -0.0389 | 0.0185 | 0.0097 | 0.0268 | -0.0238 | -0.0555 | 0.011 | -0.0248 | -0.0185 | 0.0287 | -0.0284 | 0.0098 | -0.0124
9 | CN(CCO)CC[C@H](CSc1ccccc1)Nc1ccc(S(=O)(=O)NC(=O)c2ccc(N3CCC([C@@H](O)c4ccccc4-c4ccc(Cl)cc4)CC3)cc2)cc1S(=O)(=O)C(F)(F)F [AZD4320] + CCN(CCO)CCCOc1ccc2c(Nc3cc(CC(=O)Nc4cccc(F)c4)[nH]n3)ncnc2c1 [AZD2811] (first compound max 1 µM, 7x7, partner max 1 µM) | 0.0712 | -0.0191 | 0.0635 | 0.164 | 0.0627 | 0.0738 | 0.0873 | -0.0266 | 0.0415 | -0.0089 | -0.0005 | 0.0004 | 0.0677 | 0.0105 | 0.0082 | 0.0119 | -0.0242 | 0.0011 | 0.0867 | 0.0975
10 | CN(CCO)CC[C@H](CSc1ccccc1)Nc1ccc(S(=O)(=O)NC(=O)c2ccc(N3CCC([C@@H](O)c4ccccc4-c4ccc(Cl)cc4)CC3)cc2)cc1S(=O)(=O)C(F)(F)F [AZD4320] + C[C@@H]1COCCN1C2=NC(=NC(=C2)C3(CC3)[S@](=N)(=O)C)C4=C5C=CNC5=NC=C4 [AZD6738] (first compound max 1 µM, 7x7, partner max 10 µM) | 0.0419 | -0.0275 | -0.0544 | 0.02 | -0.105 | 0.0521 | -0.0244 | -0.0439 | -0.0805 | -0.0313 | 0.0093 | 0.0079 | 0.0102 | -0.0112 | -0.0299 | 0.0135 | -0.0311 | -0.036 | -0.0086 | -0.0167
11 | N#Cc1cnc(Nc2cc(NC[C@H]3CNCCO3)c(C(F)(F)F)cn2)cn1 [SRA737] + O=c1[nH]cc(F)c(=O)[nH]1 [5-Fluorouracil] (first compound max 10 µM, 7x7, partner max 20 µM) | – | – | – | – | – | – | – | – | – | – | – | – | – | – | – | – | – | – | – | -0.0699
12 | Cc1cc2ncnn2cc1Nc1ncc2c(n1)n(C1CCOCC1)c(=O)n2C [AZD7648] + COc1cc([C@@H]2c3cc4c(cc3[C@@H](O[C@@H]3O[C@@H]5CO[C@@H](C)O[C@H]5[C@H](O)[C@H]3O)[C@H]3COC(=O)[C@H]23)OCO4)cc(OC)c1O [Etoposide] (first compound max 10 µM, 7x7, partner max 10 µM) | – | – | – | – | – | – | – | – | – | – | – | – | – | – | – | – | – | – | – | -0.0803
13 | CC(=O)c1c(C)c2cnc(Nc3ccc(N4CCNCC4)cn3)nc2n(C2CCCC2)c1=O [Palbociclib] + CN(CC[C@H](CSC1=CC=CC=C1)NC2=C(C=C(C=C2)S(=O)(=O)NC(=O)C3=CC=C(C=C3)N4CCC(CC4)[C@H](C5=CC=CC=C5C6=CC=C(C=C6)Cl)O)S(=O)(=O)C(F)(F)F)CCO [AZD4320] (first compound max 10 µM, 7x7, partner max 1 µM) | -0.0375 | -0.0474 | -0.0667 | -0.0225 | -0.0863 | 0.0318 | -0.0283 | -0.0562 | -0.0503 | -0.0137 | -0.043 | -0.0507 | -0.0143 | -0.0316 | -0.0355 | -0.0089 | -0.0417 | -0.144 | 0.0142 | –
14 | CN(CCO)CC[C@H](CSc1ccccc1)Nc1ccc(S(=O)(=O)NC(=O)c2ccc(N3CCC([C@@H](O)c4ccccc4-c4ccc(Cl)cc4)CC3)cc2)cc1S(=O)(=O)C(F)(F)F [AZD4320] + C[C@@H](Nc1cc(F)cc(F)c1)c1cc(C(=O)N(C)C)cc2c(=O)cc(N3CCOCC3)oc12 [AZD8186] (first compound max 1 µM, 7x7, partner max 3 µM) | 0.035 | 0.0317 | 0.0005 | -0.0209 | 0.0763 | 0.0131 | 0.0633 | 0.0217 | 0.0818 | 0.0052 | -0.0003 | 0.0064 | 0.0133 | 0.0576 | -0.0136 | 0.031 | 0.0234 | – | 0.0706 | 0.0205
15 | CN(CCO)CC[C@H](CSc1ccccc1)Nc1ccc(S(=O)(=O)NC(=O)c2ccc(N3CCC([C@@H](O)c4ccccc4-c4ccc(Cl)cc4)CC3)cc2)cc1S(=O)(=O)C(F)(F)F [AZD4320] + Nc1ccn([C@@H]2O[C@H](CO)[C@@H](O)C2(F)F)c(=O)n1 [Gemcitabine] (first compound max 1 µM, 7x7, partner max 0.3 µM) | – | – | – | – | – | – | – | – | – | – | – | – | – | – | – | – | – | – | – | 0.0074
16 | N#Cc1cnc(Nc2cc(NC[C@H]3CNCCO3)c(C(F)(F)F)cn2)cn1 [SRA737] + CCc1c2c(nc3ccc(O)cc13)-c1cc3c(c(=O)n1C2)COC(=O)[C@]3(O)CC [SN-38] (first compound max 10 µM, 7x7, partner max 0.3 µM) | – | – | – | – | – | – | – | – | – | – | – | – | – | – | – | – | – | – | – | 0.129
